Assay results as given in patent US7795456B2, “Insecticidal N-substituted sulfoximines” (Dow AgroSciences LLC, priority 2004, dated 2010).

Key:
[1] = system: yellow fever mosquito (Aedes aegypti) larvae; experiment: whole plant or invertebrate; format: in vivo; settings: 72 h, read-out: YFM 26: % control at 26 ppm against yellow fever mosquito in submerge tests
[2] = system: Colorado potato beetle (Leptinotarsa decemlineata); experiment: Insecticidal test for Colorado potato beetle, foliar spray on tomato; format: in vivo; settings: for % Control at ppm, against Colorado potato beetle: 12.5: 12.5 ppm; for CPB 50: % control at 50 ppm against Colorado potato beetle in foliar spray tests: 5 days, Corrected % Control; for CPB 50: % control at 50 ppm against Colorado potato beetle in foliar spray tests / % Control at ppm, against Colorado potato beetle: 50: 50 ppm
Protocol: Insecticidal Test for Colorado Potato Beetle (Leptinotarsa decemlineata).
Tomato seedlings at the growth stage of three or four expanding leaves were used. […] Treated plants were held in the laboratory for approximately 3 h to allow drying before the upper portion (with two or three leaves) of a plant was cut and placed in a 10×2.5-cm petri dish containing approximately 10 mL of solidified 1% agar at the bottom. Five 2nd or 3rd instar larvae were placed on the treated plant tissue, and the petri dishes were covered and held in an incubator at 25° C. At 5 days following treatment, insecticidal activity was evaluated by counting the number of live larvae in each dish.

[3] = system: corn earworm (Helicoverpa zea); settings: 50 μg/cm2, second-instar larvae, 5 days
[4] = system: beet armyworm (Spodoptera exigua); settings: 50 μg/cm2, second-instar larvae, 5 days
[5] = system: fruit fly (Drosophila melanogaster); settings: for FF SYM: % showing intoxicated symptoms at 25 μg/cm2 against fruit fly in dietary tests: 25 μg/cm2, 4 h; for FF 25: % mortality at 25 μg/cm2 against fruit fly in dietary tests: 25 μg/cm2, 48 h
[6] = system: beet armyworm (Spodoptera exigua); experiment: Insecticidal test for beet armyworm in injection assays; settings: 1 h, read-out: BAW SYM: % showing intoxicated symptoms at 10 μg/larva against beet armyworm in injection tests
[7] = system: cotton aphid (Aphis gossypii); experiment: Insecticidal test for cotton aphid, foliar spray on squash; settings: for pest or weed control at 50 ppm / pest or weed control at 200 ppm: Aphis gossypii, foliar, 72 h; for pest or weed control at 50 ppm: read-out: CA 50: % control at 50 ppm against cotton aphid in foliar spray tests; for pest or weed control at 200 ppm: read-out: CA 200: % control at 200 ppm against cotton aphid in foliar spray tests
[8] = system: sweet potato whitefly (Bemisia tabaci); experiment: Insecticidal test for sweet potato whitefly, foliar spray on cotton; settings: for % Control at ppm, against sweet potato whitefly: 0.4-0.78: 0.4-0.78 ppm; for % Control at ppm, against sweet potato whitefly: 0.4-0.78 / % Control at ppm, against sweet potato whitefly: 2-3.13 / % Control at ppm, against sweet potato whitefly: 10-12.5 / % Control at ppm, against sweet potato whitefly: 50: rundown assay; for % Control at ppm, against sweet potato whitefly: 2-3.13: 2-3.13 ppm; for % Control at ppm, against sweet potato whitefly: 10-12.5: 10-12.5 ppm; for % Control at ppm, against sweet potato whitefly: 50: 50 ppm; for pest or weed control at 200 ppm: Bemisia tabaci, in Gossypium hirsutum, foliar, read-out: SPW 200: % control at 200 ppm against sweet potato whitefly in foliar spray tests
[9] = system: green peach aphid (Myzus persicae); experiment: Insecticidal test for green peach aphid, foliar spray on cabbage seedlings; settings: rundown assay, 3 days

Structure (SMILES) | pest or weed control at 26 ppm [1] | % Control at ppm, against Colorado potato beetle: 12.5 ([2]; rundown assay) | CPB 50: % control at 50 ppm against Colorado potato beetle in foliar spray tests [2] | % Control at ppm, against Colorado potato beetle: 50 ([2]; rundown assay) | CEW 50: % mortality at 50 μg/cm2 against corn earworm in dietary tests [3] | BAW 50: % mortality at 50 μg/cm2 against beet armyworm in dietary tests [4] | FF SYM: % showing intoxicated symptoms at 25 μg/cm2 against fruit fly in dietary tests [5] | FF 25: % mortality at 25 μg/cm2 against fruit fly in dietary tests [5] | pest or weed control at 0.01 mg [6] | pest or weed control at 50 ppm [7] | pest or weed control at 200 ppm [7] | % Control at ppm, against sweet potato whitefly: 0.4-0.78 [8] | % Control at ppm, against sweet potato whitefly: 2-3.13 [8] | % Control at ppm, against sweet potato whitefly: 10-12.5 [8] | % Control at ppm, against sweet potato whitefly: 50 [8] | pest or weed control at 200 ppm [8] | other results
CS(=O)(Cc1ccc(Cl)nc1)=NC#N (centres unmarked) [Compound 10, [(6-Chloropyridin-3-yl)methyl](methyl)oxido-λ^4-sulfanylidene-cyanamide] | 90 to 100% | E (50-59) | B (80-89) | B (80-89) | G (Inactive) | G (Inactive) | A (90-100) | A (90-100) | < 50% | 90 to 100% | 90 to 100% | F (Less than 50) | D (60-69) | A (90-100) | A (90-100) | 90 to 100% | 
N#CN=[S@@]1(=O)CCCC1Cc1ccc(Cl)nc1 (some centres unmarked) [Compound 20] | 90 to 100% | A (90-100) | A (90-100) | A (90-100) | G (Inactive) | G (Inactive) | F (Less than 50) | F (Less than 50) | 80 to 89% | 90 to 100% | 90 to 100% | F (Less than 50) | F (Less than 50) | A (90-100) | A (90-100) | 90 to 100% | % Control at ppm, against Colorado potato beetle: 0.78 ([2]; 0.78 ppm, rundown assay): F (Less than 50); % Control at ppm, against Colorado potato beetle: 3.13 ([2]; 3.13 ppm, rundown assay): F (Less than 50); % Control at ppm, against cotton aphid: 0.049 ([7]; 0.049 ppm, rundown assay): B (80-89); % Control at ppm, against cotton aphid: 0.195 ([7]; 0.195 ppm, rundown assay): A (90-100); % Control at ppm, against cotton aphid: 0.78 ([7]; 0.78 ppm, rundown assay): A (90-100); % Control at ppm, against cotton aphid: 3.12 ([7]; 3.12 ppm, rundown assay): A (90-100); % Control at ppm, against cotton aphid: 12.5 ([7]; 12.5 ppm, rundown assay): A (90-100); % Control at ppm, against cotton aphid: 50 ([7]; 50 ppm, rundown assay): A (90-100); % Control at ppm, against green peach aphid: 0.049 ([9]; 0.049 ppm): F (Less than 50); % Control at ppm, against green peach aphid: 0.195 ([9]; 0.195 ppm): F (Less than 50); % Control at ppm, against green peach aphid: 0.78 ([9]; 0.78 ppm): F (Less than 50); % Control at ppm, against green peach aphid: 3.12 ([9]; 3.12 ppm): F (Less than 50); % Control at ppm, against green peach aphid: 12.5 ([9]; 12.5 ppm): A (90-100); % Control at ppm, against green peach aphid: 50 ([9]; 50 ppm): A (90-100)
O=[N+]([O-])N=S1(=O)CCCC1Cc1ccc(Cl)nc1 (centres unmarked) [Compound 35] | 80 to 89% |  | B (80-89) |  | G (Inactive) | G (Inactive) | D (60-69) | F (Less than 50) | < 50% | 90 to 100% | 90 to 100% |  |  |  |  | 90 to 100% | 
